Where two headings read alike, the source gives them in different places.
Tests used:
human Nav 1.5 = human Nav 1.5 (Homo sapiens (Human), UniProt Q14524); experiment: Nav 1.5 IonWorks Quattro (IWQ) in vitro assay; type: cell-based
human Nav1.7 = human Nav1.7 (Homo sapiens (Human), UniProt Q15858); experiment: Nav 1.7 in vitro PatchXpress (PX) assay; type: cell-based
[1] = in-vitro Nav 1.5 IWQ data, read-out: NAV 1.5 IWQ (IC50)
[2] = human, HEK 293 cells stably transfected with human Nav 1.5, in-vitro Nav 1.5 IWQ data, read-out: NAV 1.5 IWQ (IC50)

human Nav1.7, sequence (Q15858 whole entry): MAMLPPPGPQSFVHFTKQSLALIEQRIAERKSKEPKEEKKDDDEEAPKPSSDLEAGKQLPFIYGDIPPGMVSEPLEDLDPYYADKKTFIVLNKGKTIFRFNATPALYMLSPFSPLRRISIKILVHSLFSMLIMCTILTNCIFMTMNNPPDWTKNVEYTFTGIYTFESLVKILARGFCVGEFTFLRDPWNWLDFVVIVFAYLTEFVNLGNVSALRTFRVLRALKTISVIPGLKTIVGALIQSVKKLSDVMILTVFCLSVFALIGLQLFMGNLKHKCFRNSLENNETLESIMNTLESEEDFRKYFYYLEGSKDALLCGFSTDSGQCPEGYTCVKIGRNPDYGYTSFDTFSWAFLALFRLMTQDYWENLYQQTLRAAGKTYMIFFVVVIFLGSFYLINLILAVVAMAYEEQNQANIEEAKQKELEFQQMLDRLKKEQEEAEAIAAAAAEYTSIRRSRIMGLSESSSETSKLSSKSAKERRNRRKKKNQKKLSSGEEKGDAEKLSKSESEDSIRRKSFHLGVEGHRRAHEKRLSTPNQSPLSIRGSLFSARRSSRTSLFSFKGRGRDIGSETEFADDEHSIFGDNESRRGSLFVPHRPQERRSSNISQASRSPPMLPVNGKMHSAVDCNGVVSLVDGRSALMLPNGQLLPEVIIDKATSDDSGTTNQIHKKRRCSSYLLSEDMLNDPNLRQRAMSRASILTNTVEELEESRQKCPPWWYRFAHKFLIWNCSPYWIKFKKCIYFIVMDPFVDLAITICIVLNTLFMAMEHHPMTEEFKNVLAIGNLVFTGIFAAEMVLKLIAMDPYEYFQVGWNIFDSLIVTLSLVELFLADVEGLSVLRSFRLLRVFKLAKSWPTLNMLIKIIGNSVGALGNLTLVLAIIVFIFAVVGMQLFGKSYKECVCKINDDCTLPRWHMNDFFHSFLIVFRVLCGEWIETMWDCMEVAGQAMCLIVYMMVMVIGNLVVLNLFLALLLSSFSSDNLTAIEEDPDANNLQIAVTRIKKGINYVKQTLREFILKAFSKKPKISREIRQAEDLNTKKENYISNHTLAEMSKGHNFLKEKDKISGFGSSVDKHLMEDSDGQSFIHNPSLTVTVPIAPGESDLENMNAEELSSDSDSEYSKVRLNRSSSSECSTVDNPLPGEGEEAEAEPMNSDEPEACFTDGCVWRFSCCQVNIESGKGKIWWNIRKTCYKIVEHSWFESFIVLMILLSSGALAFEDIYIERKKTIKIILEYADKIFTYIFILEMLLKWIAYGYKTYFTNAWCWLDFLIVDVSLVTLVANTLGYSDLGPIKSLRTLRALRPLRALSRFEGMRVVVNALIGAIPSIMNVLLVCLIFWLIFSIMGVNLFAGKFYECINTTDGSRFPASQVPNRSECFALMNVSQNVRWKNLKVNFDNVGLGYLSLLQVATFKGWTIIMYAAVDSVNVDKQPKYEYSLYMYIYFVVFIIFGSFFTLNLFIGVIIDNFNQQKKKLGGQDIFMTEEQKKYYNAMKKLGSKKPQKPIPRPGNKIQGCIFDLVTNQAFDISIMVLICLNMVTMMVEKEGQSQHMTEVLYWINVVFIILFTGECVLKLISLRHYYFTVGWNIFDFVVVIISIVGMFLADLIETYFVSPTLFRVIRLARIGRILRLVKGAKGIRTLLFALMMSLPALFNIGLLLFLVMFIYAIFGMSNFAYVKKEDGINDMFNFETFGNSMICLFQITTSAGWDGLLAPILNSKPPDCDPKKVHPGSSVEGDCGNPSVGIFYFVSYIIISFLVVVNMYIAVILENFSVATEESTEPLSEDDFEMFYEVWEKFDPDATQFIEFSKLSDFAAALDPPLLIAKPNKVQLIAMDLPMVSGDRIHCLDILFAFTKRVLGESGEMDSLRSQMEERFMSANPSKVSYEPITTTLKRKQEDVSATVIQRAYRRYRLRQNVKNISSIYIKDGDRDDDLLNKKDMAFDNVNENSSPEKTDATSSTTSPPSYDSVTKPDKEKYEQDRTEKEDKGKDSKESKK
human Nav 1.5, sequence (Q14524 whole entry): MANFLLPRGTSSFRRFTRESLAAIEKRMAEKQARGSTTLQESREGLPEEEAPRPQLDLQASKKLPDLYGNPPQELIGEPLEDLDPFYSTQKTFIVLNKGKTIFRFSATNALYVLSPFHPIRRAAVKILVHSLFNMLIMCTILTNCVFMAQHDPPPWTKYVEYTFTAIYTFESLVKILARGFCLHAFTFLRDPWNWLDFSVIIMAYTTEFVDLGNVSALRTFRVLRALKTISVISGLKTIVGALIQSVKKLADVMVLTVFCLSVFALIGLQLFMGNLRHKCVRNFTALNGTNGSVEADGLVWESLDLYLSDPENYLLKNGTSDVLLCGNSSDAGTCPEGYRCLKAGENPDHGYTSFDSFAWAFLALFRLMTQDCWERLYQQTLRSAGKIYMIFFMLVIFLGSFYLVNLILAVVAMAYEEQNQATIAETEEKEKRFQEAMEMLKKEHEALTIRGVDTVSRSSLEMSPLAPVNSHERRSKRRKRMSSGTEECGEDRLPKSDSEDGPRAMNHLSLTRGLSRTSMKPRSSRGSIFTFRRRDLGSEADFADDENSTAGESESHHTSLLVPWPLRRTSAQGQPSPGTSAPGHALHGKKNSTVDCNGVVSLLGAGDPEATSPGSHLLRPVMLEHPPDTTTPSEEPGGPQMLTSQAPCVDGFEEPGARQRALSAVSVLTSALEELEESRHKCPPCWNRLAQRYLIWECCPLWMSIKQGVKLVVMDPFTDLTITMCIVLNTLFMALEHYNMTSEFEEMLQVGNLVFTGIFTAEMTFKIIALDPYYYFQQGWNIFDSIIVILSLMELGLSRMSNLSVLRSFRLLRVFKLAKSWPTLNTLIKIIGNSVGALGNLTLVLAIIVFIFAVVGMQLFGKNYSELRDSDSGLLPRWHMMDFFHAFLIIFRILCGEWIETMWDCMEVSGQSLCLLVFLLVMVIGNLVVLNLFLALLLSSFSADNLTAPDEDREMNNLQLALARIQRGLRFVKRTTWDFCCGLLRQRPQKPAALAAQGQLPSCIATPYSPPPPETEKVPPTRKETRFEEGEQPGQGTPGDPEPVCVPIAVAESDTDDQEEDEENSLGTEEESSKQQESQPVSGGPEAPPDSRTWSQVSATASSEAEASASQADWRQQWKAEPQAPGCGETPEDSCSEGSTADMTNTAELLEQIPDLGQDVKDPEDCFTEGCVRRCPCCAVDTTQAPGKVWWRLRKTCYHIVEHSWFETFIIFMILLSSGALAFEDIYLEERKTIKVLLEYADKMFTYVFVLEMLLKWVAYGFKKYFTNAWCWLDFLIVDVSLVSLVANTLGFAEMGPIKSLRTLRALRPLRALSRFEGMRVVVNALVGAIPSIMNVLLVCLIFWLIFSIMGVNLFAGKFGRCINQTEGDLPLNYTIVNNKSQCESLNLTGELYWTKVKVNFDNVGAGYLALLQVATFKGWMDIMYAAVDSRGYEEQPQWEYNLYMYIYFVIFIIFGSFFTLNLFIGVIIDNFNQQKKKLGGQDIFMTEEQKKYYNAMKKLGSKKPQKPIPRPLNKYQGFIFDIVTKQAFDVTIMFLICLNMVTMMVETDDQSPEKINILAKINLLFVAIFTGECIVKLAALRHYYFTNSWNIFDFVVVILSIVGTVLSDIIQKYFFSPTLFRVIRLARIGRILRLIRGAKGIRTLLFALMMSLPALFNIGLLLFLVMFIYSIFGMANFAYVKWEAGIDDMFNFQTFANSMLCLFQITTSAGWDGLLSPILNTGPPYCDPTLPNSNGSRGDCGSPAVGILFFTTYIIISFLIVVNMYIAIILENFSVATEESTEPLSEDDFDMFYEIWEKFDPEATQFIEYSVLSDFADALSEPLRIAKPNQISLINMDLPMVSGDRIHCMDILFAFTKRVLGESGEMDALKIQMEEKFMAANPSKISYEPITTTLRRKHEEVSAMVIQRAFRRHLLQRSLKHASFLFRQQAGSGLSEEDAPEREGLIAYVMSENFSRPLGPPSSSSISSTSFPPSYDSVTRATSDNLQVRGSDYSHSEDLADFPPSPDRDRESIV

Row | SMILES | IC50 (human Nav 1.5; read-out: NAV 1.5 IWQ IC50) [nM] | IC50 (human Nav1.7) [nM] | other results
1 | Cc1ccc([C@H]2CCCN2c2ncc(-c3cc(F)c(C(=O)NS(C)(=O)=O)cc3C)cc2Cl)cc1 [Example 657, 4-(5-chloro-6-((2R)-2-(4-methylphenyl)-1-pyrrolidinyl)-3-pyridinyl)-2-fluoro-5-methyl-N-(methylsulfonyl)benzamide, 4-(5-chloro-6-((2S)-2-(4-methylphenyl)-1-pyrrolidinyl)-3-pyridinyl)-2-fluoro-5-methyl-N-(methylsulfonyl)benzamide] | > 3000 | 92.9 | 
2 | COc1cc(C(=O)NS(C)(=O)=O)c(F)cc1-c1cnc(O[C@H](C)c2ccccc2)c(Cl)c1 [Example 696, 4-(5-chloro-6-((1R)-1-phenylethoxy)-3-pyridinyl)-2-fluoro-5-methoxy-N-(methylsulfonyl)benzamide, 4-(5-chloro-6-((1S)-1-phenylethoxy)-3-pyridinyl)-2-fluoro-5-methoxy-N-(methylsulfonyl)benzamide] | > 3000 | 93 | 
3 | Cc1cc(C(=O)NS(C)(=O)=O)c(F)cc1-c1cnc(Oc2cc(C(F)(F)F)ccc2Cl)c(Cl)c1 [Example 642, 4-(5-chloro-6-(2-chloro-5-(trifluoromethyl)phenoxy)-3-pyridinyl)-2-fluoro-5-methyl-N-(methylsulfonyl)benzamide] | > 3000 | 70.5 | 
4 | Cc1cc(C(=O)NS(C)(=O)=O)ccc1-c1cnc(Oc2c(C)cc(Cl)cc2Cl)c(Cl)c1 [Example 775, 4-(5-Chloro-6-(2,4-Dichloro-6-Methylphenoxy)-3-Pyridinyl)-3-Methyl-N-(Methyl Sulfonyl)Benzamide] |  |  | IC50 (human Nav 1.5; [1]): > 4900 nM; IC50 (human Nav1.7; in-vitro Nav 1.7 PX data): 78.2 nM
5 | Cc1cc(C(=O)NS(C)(=O)=O)c(F)cc1-c1cnc(Oc2ccc(F)c(F)c2F)c(Cl)c1 [Example 615, 4-(5-chloro-6-(2,3,4-trifluorophenoxy)-3-pyridinyl)-2-fluoro-5-methyl-N-(methylsulfonyl)benzamide] | > 3000 | 75.2 | 
6 | C[C@@](Oc1ncc(-c2cc(F)c(C(=O)NS(C)(=O)=O)cc2F)cc1Cl)(c1ccccc1)C(F)(F)F (single isomer, unassigned) [Example 804] |  |  | IC50 (human Nav 1.5; [2]): > 3000 nM
7 | CC[C@@H](Oc1ncc(-c2cc(F)c(C(=O)NS(C)(=O)=O)cc2C)cc1Cl)c1ccc(F)c(C)c1 [Example 675, 4-(5-chloro-6-(((1R)-1-(4-fluoro-3-methylphenyl)propyl)oxy)-3-pyridinyl)-2-fluoro-5-methyl-N-(methylsulfonyl)benzamide] | > 10000 | 54 | 
8 | Cc1cc(C(=O)NS(C)(=O)=O)c(F)cc1-c1cnc(Oc2c(C)cc(Cl)cc2C)c(Cl)c1 [Example 669, 4-(5-chloro-6-(4-chloro-2,6-dimethylphenoxy)-3-pyridinyl)-2-fluoro-5-methyl-N-(methylsulfonyl)benzamide] | 3610 | 66 | 
9 | Cc1cc(C(=O)NS(C)(=O)=O)c(F)cc1-c1cnc(OCc2nc3ccccc3s2)c(Cl)c1 [Example 636, 4-(6-(1,3-benzothiazol-2-ylmethoxy)-5-chloro-3-pyridinyl)-2-fluoro-5-methyl-N-(methylsulfonyl)benzamide] | > 3000 | 55.7 | 
10 | Cc1cc(C(=O)NS(C)(=O)=O)c(F)cc1-c1cnc(Oc2ccc(Cl)c(Cl)c2)c(Cl)c1 [Example 664, 4-(5-chloro-6-(3,4-dichlorophenoxy)-3-pyridinyl)-2-fluoro-5-methyl-N-(methylsulfonyl)benzamide] | > 10000 | 80.6 | 
11 | Cc1ccc(Oc2ncc(-c3cc(F)c(C(=O)NS(C)(=O)=O)cc3Cl)cc2Cl)cc1F [Example 591, 5-chloro-4-(5-chloro-6-(3-fluoro-4-methylphenoxy)-3-pyridinyl)-2-fluoro-N-(methylsulfonyl)benzamide] | > 3000 | 85.6 | 
12 | Cc1cc(Cl)ccc1Oc1ncc(-c2cc(F)c(C(=O)NS(C)(=O)=O)cc2C)cc1Cl [Example 620, 4-(5-chloro-6-(4-chloro-2-methylphenoxy)-3-pyridinyl)-2-fluoro-5-methyl-N-(methylsulfonyl)benzamide] | > 3000 | 76.1 | 
13 | COc1cc(C(=O)NS(C)(=O)=O)c(F)cc1-c1cnc(O[C@H]2C[C@H]3CC[C@@H]2C3)c(Cl)c1 [Example 703, 4-(6-((1R,2S,4S)-bicyclo[2.2.1]hept-2-yloxy)-5-chloro-3-pyridinyl)-2-fluoro-5-methoxy-N-(methylsulfonyl)benzamide] | > 3000 | 78.2 | 
14 | Cc1cc(C(=O)NS(C)(=O)=O)c(F)cc1-c1cnc(Oc2ccc(C)c(F)c2F)c(Cl)c1 [Example 643, 4-(5-chloro-6-(2,3-difluoro-4-methylphenoxy)-3-pyridinyl)-2-fluoro-5-methyl-N-(methylsulfonyl)benzamide] | 5440 | 79.2 | 
15 | COc1cc(C(=O)NS(C)(=O)=O)ccc1-c1cnc(OCc2ccccc2Cl)c(Cl)c1 [Example 577, 4-(5-chloro-6-((2-chlorobenzyl)oxy)-3-pyridinyl)-3-methoxy-N-(methylsulfonyl)benzamide] | > 3000 | 95 | 
16 | Cc1cc(C(=O)NS(C)(=O)=O)c(F)cc1-c1cnc(Oc2cc(F)cc(F)c2Cl)c(Cl)c1 [Example 631, 4-(5-chloro-6-(2-chloro-3,5-difluorophenoxy)-3-pyridinyl)-2-fluoro-5-methyl-N-(methylsulfonyl)benzamide] | > 3000 | 62.8 | 
17 | Cc1cc(Cl)c(Oc2ncc(-c3cc(F)c(C(=O)NS(C)(=O)=O)cc3C)cc2Cl)cc1C [Example 632, 4-(5-chloro-6-(2-chloro-4,5-dimethylphenoxy)-3-pyridinyl)-2-fluoro-5-methyl-N-(methylsulfonyl)benzamide] | > 3000 | 81.5 | 
18 | Cc1cc(C(=O)NS(=O)(=O)c2nccs2)c(F)cc1-c1cnc(Oc2c(C)cc(Cl)cc2Cl)c(Cl)c1 [Example 799, 4-(5-chloro-6-(2,4-dichloro-6-methylphenoxy)-3-pyridinyl)-2-fluoro-5-methyl-N-(1,3-thiazol-2-ylsulfonyl)benzamide] |  |  | IC50 (human Nav 1.5; [1]): 669 nM; IC50 (human Nav1.7; in-vitro Nav 1.7 PX data): 23.1 nM
19 | COc1cc(C(=O)NS(C)(=O)=O)c(F)cc1-c1cnc(Oc2cc(F)cc(F)c2F)c(Cl)c1 [Example 700, 4-(5-chloro-6-(2,3,5-trifluorophenoxy)-3-pyridinyl)-2-fluoro-5-methoxy-N-(methylsulfonyl)benzamide] | > 3000 | 91.3 | 
20 | C[C@@](Oc1ncc(-c2cc(F)c(C(=O)NS(C)(=O)=O)cc2F)cc1Cl)(c1ccccc1)C(F)(F)F [Example 566, 4-(5-chloro-6-((1R)-2,2,2-trifluoro-1-methyl-1-phenylethoxy)-3-pyridinyl)-2,5-difluoro-N-(methylsulfonyl)benzamide, 4-(5-chloro-6-((1S)-2,2,2-trifluoro-1-methyl-1-phenylethoxy)-3-pyridinyl)-2,5-difluoro-N-(methylsulfonyl)benzamide] | > 3000 | 73.1 | 
21 | Cc1cc(Cl)cc(Cl)c1Oc1ncc(-c2cc(F)c(C(=O)NS(C)(=O)=O)cc2F)cc1Cl [Example 567, 4-(5-chloro-6-(2,4-dichloro-6-methylphenoxy)-3-pyridinyl)-2,5-difluoro-N-(methylsulfonyl)benzamide] | > 4900 | 59.8 | 
22 | Cc1cc(C(=O)NS(C)(=O)=O)c(F)cc1-c1cnc(O[C@H](C)c2cc(Cl)ccc2Cl)c(Cl)c1 [Example 673, 4-(5-chloro-6-((1R)-1-(2,5-dichlorophenyl)ethoxy)-3-pyridinyl)-2-fluoro-5-methyl-N-(methylsulfonyl)benzamide] | > 10000 |  | 
23 | COc1cc(C(=O)NS(C)(=O)=O)c(F)cc1-c1cnc(Oc2cccc(C)c2Cl)c(Cl)c1 [Example 760, 4-(5-chloro-6-(2-chloro-3-methylphenoxy)-3-pyridinyl)-2-fluoro-5-methoxy-N-(methylsulfonyl)benzamide] |  |  | IC50 (human Nav1.7; in-vitro Nav 1.7 PX data): 62.4 nM
24 | CC[C@@H](Oc1ncc(-c2cc(F)c(C(=O)NS(C)(=O)=O)cc2OC)cc1Cl)C(F)(F)F [Example 736, 4-(5-chloro-6-(((1R)-1-(trifluoromethyl)propyl)oxy)-3-pyridinyl)-2-fluoro-5-methoxy-N-(methylsulfonyl)benzamide] |  |  | IC50 (human Nav1.7; in-vitro Nav 1.7 PX data): 84 nM
25 | Cc1cc(C(=O)NS(C)(=O)=O)c(F)cc1-c1cnc(Oc2c(F)ccc(Cl)c2F)c(Cl)c1 [Example 625, 4-(5-chloro-6-(3-chloro-2,6-difluorophenoxy)-3-pyridinyl)-2-fluoro-5-methyl-N-(methylsulfonyl)benzamide] |  | 83.7 | 
26 | COc1cc(C(=O)NS(C)(=O)=O)ccc1-c1cnc(Oc2ccc(Cl)c(C(F)(F)F)c2)c(Cl)c1 [Example 370, 4-(5-chloro-6-(4-chloro-3-(trifluoromethyl)phenoxy)-3-pyridinyl)-3-methoxy-N-(methylsulfonyl)benzamide] |  | 57 | 
27 | CC[C@@H](Oc1ncc(-c2cc(F)c(C(=O)NS(C)(=O)=O)cc2C)cc1Cl)c1ccc(C)cc1 [Example 685, 4-(5-chloro-6-(((1R)-1-(4-methylphenyl)propyl)oxy)-3-pyridinyl)-2-fluoro-5-methyl-N-(methylsulfonyl)benzamide, 4-(5-chloro-6-(((1S)-1-(4-methylphenyl)propyl)oxy)-3-pyridinyl)-2-fluoro-5-methyl-N-(methylsulfonyl)benzamide] |  | 88.1 | 
28 | C[C@](Oc1ncc(-c2cc(F)c(C(=O)NS(C)(=O)=O)cc2F)cc1Cl)(c1ccccc1)C(F)(F)F (single isomer, unassigned) [Example 805] |  |  | IC50 (human Nav 1.5; [2]): > 3000 nM
29 | COc1ncc(Oc2ncc(-c3ccc(C(=O)NS(C)(=O)=O)cc3OC(F)F)cc2Cl)cc1Cl [Example 436, 4-(5-chloro-6-((5-chloro-6-methoxy-3-pyridinyl)oxy)-3-pyridinyl)-3-(difluoromethoxy)-N-(methylsulfonyl)benzamide] |  | 92.2 | 
30 | CS(=O)(=O)NC(=O)c1ccc(-c2cnc(Oc3cc(Cl)cc(Cl)c3)c(Cl)c2)c(OC(F)F)c1 [Example 461, 4-(5-chloro-6-(3,5-dichlorophenoxy)-3-pyridinyl)-3-(difluoromethoxy)-N-(methylsulfonyl)benzamide] |  | 33.7 | 
